Test system: tobacco budworm (Heliothis virescens [Fabricius])
Assay: surface-treated diet test against tobacco budworm
Type: in vivo
Conditions: 0.25 millimolar on the surface of the diet, second instar larvae, five-day exposure; for Percent Mortality: compared to the total number of insects infested; for Percent Growth Inhibition: inhibition of insect weight relative to untreated controls

Compound: COc1ccc(C2(COc3ccc(CN4CCC(C(O)(c5ccc(OC(F)(F)F)cc5)c5ccc(OC(F)(F)F)cc5)CC4)cc3)OCCO2)cc1 [Compound 192]
- Percent Mortality: 100%
- Percent Growth Inhibition: 100%

Compound: CC1COC(COc2ccc(CN3CCC(C(O)(c4ccc(OC(F)(F)F)cc4)c4ccc(OC(F)(F)F)cc4)CC3)cc2)O1 (stereo not shown) [Compound 193]
- Percent Mortality: 100%
- Percent Growth Inhibition: 100%

Compound: CC1COC(COc2ccc(C[N+]3([O-])CCC(C(O)(c4ccc(OC(F)(F)F)cc4)c4ccc(OC(F)(F)F)cc4)CC3)cc2)O1 (stereo not shown) [Compound 194]
- Percent Mortality: 100%
- Percent Growth Inhibition: 100%

Compound: COCC1COC(COc2ccc(CN3CCC(C(O)(c4ccc(OC(F)(F)F)cc4)c4ccc(OC(F)(F)F)cc4)CC3)cc2)O1 (stereo not shown) [Compound 195]
- Percent Mortality: 100%
- Percent Growth Inhibition: 100%

Compound: CCC1COC(COc2ccc(CN3CCC(C(O)(c4ccc(OC(F)(F)F)cc4)c4ccc(OC(F)(F)F)cc4)CC3)cc2)O1 (stereo not shown) [Compound 196]
- Percent Mortality: 100%
- Percent Growth Inhibition: 100%

Compound: COCC1COC(COc2ccc(C[N+]3([O-])CCC(C(O)(c4ccc(OC(F)(F)F)cc4)c4ccc(OC(F)(F)F)cc4)CC3)cc2)O1 (stereo not shown) [Compound 197]
- Percent Mortality: 100%
- Percent Growth Inhibition: 100%

Compound: OC(c1ccc(OC(F)(F)F)cc1)(c1ccc(OC(F)(F)F)cc1)C1CCN(Cc2ccc(OCC3OCCCO3)cc2)CC1 [Compound 199, bis[4-(trifluoromethoxy)-phenyl](1-{[4-(1,3-dioxan-2-ylmethoxy)phenyl]methyl}(4-piperidyl))methan-1-ol]
- Percent Mortality: 100%
- Percent Growth Inhibition: 100%

Compound: bis(4-trifluoromethoxyphenyl])(1-{[4-(1,3-dioxan-2-ylmethoxy)phenyl]methyl}(4-piperidyl))methan-1-ol, N-oxide [Compound 200]
- Percent Mortality: 100%
- Percent Growth Inhibition: 100%

Source: patent publication US20090082203A1, “INSECTICIDAL BIS(SUBSTITUTED PHENYL)-1-{[4-(SATURATED HETEROCYCLYL-SUBSTITUTED)PHENYLMETHYL]- (4-PIPERIDYL)}METHANE DERIVATIVES” (priority 2004, published 2009)
